Assay results from publication PMC6222614, “Disubstituted 4-Chloro-3-nitrophenylthiourea Derivatives: Antimicrobial and Cytotoxic Studies” (Molecules : A Journal of Synthetic Chemistry and Natural …, 2018).
≈ marks a conversion by molar mass, not a printed value.

Experiments:
HIV-1 IIIB = assay: Anti-HIV-1 activity: protection of MT-4 cells from virus-induced cytopathogenicity (MTT); assay type: cell-based, Human Immunodeficiency Virus type-1; conditions: Human immunodeficiency virus 1, IIIB, MT4, 96 h; 50% protection of MT-4 cells from HIV-1 induced cytopathogenicity, MTT, 4-day incubation; read-out: HIV-1IIIB EC50
Text: (§1) Cell line supporting the multiplication of Human Immunodeficiency Virus type-1 (HIV-1) was the CD4+ human T-cells, derived from human hematological tumors, containing an integrated HTLV-1 genome (MT-4). Cells were purchased from American Type Culture Collection (ATCC). Human Immunodeficiency Virus type-1 (HIV-1) IIIB laboratory strain was obtained from the supernatant of the persistently infected H9/IIIB cells (NIH 1983).
The activity of compounds against HIV-1 was based on inhibition of virus-induced cytopathogenicity in MT-4 cell acutely infected with a multiplicity of infection (m.o.i.) of 0.01. Briefly, 50 μL of RPMI containing 1 × 10^4 MT-4 cells were added to each well of flat-bottom microtiter trays, containing 50 μL of RPMI without or with serial dilutions of test compounds. Then, 20 μL of a HIV-1 suspension containing 100 CCID50 were added. After a 4-day incubation at 37 °C, cell viability was determined by the MTT method.

[1] = tested on: S. epidermidis MRSE 409/11; assay: MIC, hospital methicillin-resistant strain; assay type: cell-based; conditions: Staphylococcus epidermidis
Protocol: (§2) The antimicrobial activity of the compounds was tested on Gram-positive bacteria (Staphylococcus aureus NCTC 4163, Staphylococcus aureus ATCC 25923, Staphylococcus aureus ATCC 6538, Staphylococcus aureus ATCC 29213, Staphylococcus epidermidis ATCC 12228, Staphylococcus epidermidis ATCC 35984, Enterococcus faecalis ATCC 29212, Bacillus subtilis ATCC 6633, Bacillus cereus ATCC 11778, Micrococcus luteus ATCC 9341, Micrococcus luteus ATCC 10240); Gram-negative rods (Escherichia coli ATCC 10538, Escherichia coli ATCC 25922, Escherichia coli NCTC 8196, Proteus vulgaris NCTC 4635, Pseudomonas aeruginosa ATCC 15442, Pseudomonas aeruginosa NCTC 6749, Pseudomonas aeruginosa ATCC 27863, Bordetella bronchiseptica ATCC 4617) and yeasts (Candida albicans ATCC 10231, Candida albicans ATCC 90028, Candida parapsilosis ATCC 22019). Other microorganisms used were obtained from the collection of the Department of Pharmaceutical Microbiology, Medical University of Warsaw, Poland.
(§3) Antibacterial activity was examined by the disc-diffusion method under standard conditions using Mueller-Hinton II agar medium (Becton Dickinson) according to CLSI (previously NCCLS) guidelines. Antifungal activities were assessed using Mueller-Hinton agar + 2% glucose and 0.5 µg/mL Methylene Blue Dye Medium. Sterile filter paper discs (9 mm diameter, Whatman No 3 chromatography paper) were dripped with tested compound solutions (in DMSO) to load 400 μg of a given compound per disc. Dry discs were placed on the surface of appropriate agar medium. The results (diameter of the growth inhibition zone) were read after 18 h of incubation at 35 °C. Minimal Inhibitory Concentration (MIC) was tested by the twofold serial microdilution method (in 96-well microtiter plates) using Mueller-Hinton Broth medium (Beckton Dickinson) for bacteria or RPMI-1640 medium for Candida species according to CLSI guidelines. The stock solution of tested agent was prepared in DMSO and diluted in sterile water. Concentrations of tested agents ranged from 0.125 to 512 µg/mL. The final inoculum of all studied microorganisms was 10^5 CFU/ mL^−1 (colony forming units per mL). Minimal inhibitory concentrations (the lowest concentration of a tested agent that prevents visible growth of a microorganism) were read after 18 h (bacteria) or 24 h (yeasts) of incubation at 35 °C.

[2] = tested on: S. epidermidis MRSE 406/11; assay: MIC, hospital methicillin-resistant strain; assay type: cell-based; conditions: Staphylococcus epidermidis
Protocol: as §2, §3

[3] = tested on: S. epidermidis MRSE 407/11; assay: MIC, hospital methicillin-resistant strain; assay type: cell-based; conditions: Staphylococcus epidermidis
Protocol: as §2, §3

[4] = tested on: S. epidermidis MRSE 405/11; assay: MIC, hospital methicillin-resistant strain; assay type: cell-based; conditions: Staphylococcus epidermidis
Protocol: as §2, §3

[5] = tested on: S. epidermidis MRSE 413/11; assay: MIC, hospital methicillin-resistant strain; assay type: cell-based; conditions: Staphylococcus epidermidis
Protocol: as §2, §3

[6] = tested on: S. epidermidis MRSE 411/11; assay: MIC, hospital methicillin-resistant strain; assay type: cell-based; conditions: Staphylococcus epidermidis
Protocol: as §2, §3

[7] = tested on: S. epidermidis MRSE 403/11; assay: MIC, hospital methicillin-resistant strain; assay type: cell-based; conditions: Staphylococcus epidermidis
Protocol: as §2, §3

[8] = tested on: S. epidermidis MRSE 412/11; assay: MIC, hospital methicillin-resistant strain; assay type: cell-based; conditions: Staphylococcus epidermidis
Protocol: as §2, §3

[9] = tested on: S. epidermidis MRSE 404/11; assay: MIC, hospital methicillin-resistant strain; assay type: cell-based; conditions: Staphylococcus epidermidis
Protocol: as §2, §3

[10] = tested on: S. epidermidis MRSE 422/11; assay: MIC, hospital methicillin-resistant strain; assay type: cell-based; conditions: Staphylococcus epidermidis
Protocol: as §2, §3

[11] = Cytotoxicity against mock-infected MT-4 cells (MTT); assay type: cell-based, human; conditions: human, concentration reducing viability of mock-infected MT-4 cells by 50%
Protocol: as §1
Exponentially growing MT-4 cells were seeded at an initial density of 1 × 10^5 cells/mL in 96-well plates in RPMI-1640 medium, supplemented with 10% fetal bovine serum (FBS), 100 units/mL penicillin G and 100 μg/mL streptomycin. Cell cultures were then incubated at 37 °C in a humidified, 5% CO2 atmosphere, in the absence or presence of serial dilutions of tested compounds. Cell viability was determined after 96 h at 37 °C by the 3-(4,5-dimethylthiazol-2-yl)-2,5-diphenyl-tetrazolium bromide (MTT) method.

S. aureus ATCC 29213 = assay: MIC, twofold serial microdilution; assay type: cell-based; conditions: Staphylococcus aureus, ATCC29213; standard strain, 18 h, 35 °C
Protocol: as §2, §3

[12] = tested on: S. epidermidis ATCC 12228; assay: MIC, twofold serial microdilution; assay type: cell-based; conditions: Staphylococcus epidermidis, ATCC12228; standard strain, 18 h, 35 °C
Protocol: as §2, §3

S. aureus ATCC 6538 = assay: MIC, twofold serial microdilution; assay type: cell-based; conditions: Staphylococcus aureus, ATCC6538; standard strain, 18 h, 35 °C
Protocol: as §2, §3

B. cereus ATCC 11778 = assay: MIC, twofold serial microdilution; assay type: cell-based; conditions: Bacillus cereus, ATCC11778; standard strain, 18 h, 35 °C
Protocol: as §2, §3

S. aureus ATCC 25923 = assay: MIC, twofold serial microdilution; assay type: cell-based; conditions: Staphylococcus aureus, ATCC25923; standard strain, 18 h, 35 °C
Protocol: as §2, §3

M. luteus ATCC 9341 = assay: MIC, twofold serial microdilution; assay type: cell-based; conditions: Micrococcus luteus, ATCC9341; standard strain, 18 h, 35 °C
Protocol: as §2, §3

B. subtilis ATCC 6633 = assay: MIC, twofold serial microdilution; assay type: cell-based; conditions: Bacillus subtilis, ATCC6633; standard strain, 18 h, 35 °C
Protocol: as §2, §3

[13] = tested on: S. epidermidis ATCC 35984; assay: MIC, twofold serial microdilution; assay type: cell-based; conditions: Staphylococcus epidermidis, ATCC35984; standard strain, 18 h, 35 °C
Protocol: as §2, §3

M. luteus ATCC 10240 = assay: MIC, twofold serial microdilution; assay type: cell-based; conditions: Micrococcus luteus, ATCC10240; standard strain, 18 h, 35 °C
Protocol: as §2, §3

S. aureus NCTC 4163 = assay: MIC, twofold serial microdilution; assay type: cell-based; conditions: Staphylococcus aureus, NCTC4163; standard strain, 18 h, 35 °C
Protocol: as §2, §3

standard strains = assay: Antimicrobial activity against set of bacterial and fungal strains; assay type: cell-based; conditions: for MIC: range over standard strains
Protocol: as §2
as §3, with “The stock solution of tested agent was prepared in DMSO and diluted in sterile water. Concentrations of tested agents ranged from 0.125 to 512 µg/mL. The final inoculum of all studied microorganisms was 10^5 CFU/ mL^−1 (colony forming units per mL).” left out

staphylococci = assay: MIC against staphylococci; assay type: cell-based; conditions: moderate activity
Protocol: as §2, §3

E. faecalis ATCC 29212 = assay: MIC, twofold serial microdilution; assay type: cell-based; conditions: Enterococcus faecalis, ATCC29212; standard strain, 18 h, 35 °C
Protocol: as §2, §3

Compound	EC50 (HIV-1 IIIB)	melting point	MIC [1]	MIC [2]	MIC [3]	MIC [4]	MIC [5]	MIC [6]	MIC [7]	MIC [8]	MIC [9]	MIC [10]	CC50 at 96 h [11]	MIC (S. aureus ATCC 29213)	MIC [12]	MIC (S. aureus ATCC 6538)	MIC (B. cereus ATCC 11778)	MIC (S. aureus ATCC 25923)	MIC (M. luteus ATCC 9341)	MIC (B. subtilis ATCC 6633)	other results
Cc1ccc(NC(=S)Nc2ccc(Cl)c([N+](=O)[O-])c2)cc1 [Compound 20, 1-(4-chloro-3-nitrophenyl)-3-(4-methylphenyl)thiourea]	> 14.6 µM	156 to 158 °C	16 µg/mL (≈ 49.7 µM)	16 µg/mL (≈ 49.7 µM)	16 µg/mL (≈ 49.7 µM)	16 µg/mL (≈ 49.7 µM)	16 µg/mL (≈ 49.7 µM)	16 µg/mL (≈ 49.7 µM)	16 µg/mL (≈ 49.7 µM)	32 µg/mL (≈ 99.4 µM)	16 µg/mL (≈ 49.7 µM)	32 µg/mL (≈ 99.4 µM)	14.6 µM	2 µg/mL (≈ 6.22 µM)	4 µg/mL (≈ 12.4 µM)	4 µg/mL (≈ 12.4 µM)	4 µg/mL (≈ 12.4 µM)	2 µg/mL (≈ 6.22 µM)	4 µg/mL (≈ 12.4 µM)	4 µg/mL (≈ 12.4 µM)	MIC [13]: 4 µg/mL (≈ 12.4 µM); MIC (M. luteus ATCC 10240): 4 µg/mL (≈ 12.4 µM); MIC (S. aureus NCTC 4163): 2 µg/mL (≈ 6.22 µM); MIC (standard strains): 2 to 4 µg/mL (≈ 6.22 to 12.4 µM)
COc1ccc(NC(=S)Nc2ccc(Cl)c([N+](=O)[O-])c2)cc1 [Compound 21, 1-(4-chloro-3-nitrophenyl)-3-(4-methoxyphenyl)thiourea]	> 35 µM	149 to 150.5 °C											35 µM								activity against tested microorganisms (standard strains): devoid of activity
CCCCc1ccc(NC(=S)Nc2ccc(Cl)c([N+](=O)[O-])c2)c(C)c1 [Compound 22, 1-(4-butyl-2-methylphenyl)-3-(4-chloro-3-nitrophenyl)thiourea]	> 18.7 µM	67 to 69 °C	4 µg/mL (≈ 10.6 µM)	8 µg/mL (≈ 21.2 µM)	4 µg/mL (≈ 10.6 µM)	4 µg/mL (≈ 10.6 µM)	8 µg/mL (≈ 21.2 µM)	4 µg/mL (≈ 10.6 µM)	4 µg/mL (≈ 10.6 µM)	8 µg/mL (≈ 21.2 µM)	8 µg/mL (≈ 21.2 µM)	8 µg/mL (≈ 21.2 µM)	18.7 µM	2 µg/mL (≈ 5.29 µM)	4 µg/mL (≈ 10.6 µM)	2 µg/mL (≈ 5.29 µM)	4 µg/mL (≈ 10.6 µM)	2 µg/mL (≈ 5.29 µM)	4 µg/mL (≈ 10.6 µM)	4 µg/mL (≈ 10.6 µM)	MIC [13]: 4 µg/mL (≈ 10.6 µM); MIC (M. luteus ATCC 10240): 2 µg/mL (≈ 5.29 µM); MIC (S. aureus NCTC 4163): 4 µg/mL (≈ 10.6 µM); MIC (standard strains): 2 to 4 µg/mL (≈ 5.29 to 10.6 µM)
O=[N+]([O-])c1cc(NC(=S)NCc2ccco2)ccc1Cl [Compound 30, 1-(4-chloro-3-nitrophenyl)-3-(furan-2-ylmethyl)thiourea]	> 25.6 µM	144 to 146 °C	32 µg/mL (≈ 103 µM)	64 µg/mL (≈ 205 µM)	32 µg/mL (≈ 103 µM)	32 µg/mL (≈ 103 µM)	32 µg/mL (≈ 103 µM)	32 µg/mL (≈ 103 µM)	32 µg/mL (≈ 103 µM)	32 µg/mL (≈ 103 µM)	32 µg/mL (≈ 103 µM)	32 µg/mL (≈ 103 µM)	25.6 µM	16 µg/mL (≈ 51.3 µM)	32 µg/mL (≈ 103 µM)	16 µg/mL (≈ 51.3 µM)	16 µg/mL (≈ 51.3 µM)	8 µg/mL (≈ 25.7 µM)	16 µg/mL (≈ 51.3 µM)	16 µg/mL (≈ 51.3 µM)	MIC range towards staphylococci (staphylococci): 8 to 16 µg/mL; MIC (E. faecalis ATCC 29212): 32 µg/mL (≈ 103 µM); MIC [13]: 32 µg/mL (≈ 103 µM); MIC (M. luteus ATCC 10240): 16 µg/mL (≈ 51.3 µM); MIC (S. aureus NCTC 4163): 16 µg/mL (≈ 51.3 µM)
